In publication PMC5823469, “Unique pharmacological properties of serotoninergic G-protein coupled receptors from cestodes” (PLoS Neglected Tropical Diseases, 2018):
Read-outs that look alike come from different tables or passages of the source.

Experiments:
[1] = target: human 5-HT1A receptor; set-up: method as in PMID 24900203; details: cited from earlier work
[2] = target: 5-HT7Egran1 (Echinococcus canadensis, UniProt A0A482LU10); test: cell-based; format: cell-based, Echinococcus granulosus; details: for pharmacological behaviour (agonist/antagonist, efficacy) in cAMP assay: 5-HT7Egran1
Description: (§1) HEK-293 cells (ATCC CRL-1573.3) were cultured in growth media [DMEM (Gibco), 10% heat inactivated fetal bovine serum (Gibco), penicillin (100units/mL), streptomycin (100μg/mL) and L-glutamine (290μg/mL)] and used for assays between passages 5 and 25. For cestode GPCR heterologous expression assays, cells were transfected (Lipofectamine 2000, Invitrogen) at 80% confluency approximately 16 hours after seeding within T-25 culture flasks with a 1:1 ratio of human codon optimized cestode GPCR cDNA (subcloned into a pcDNA3.1(-) mammalian expression vector) and cDNA encoding the pGloSensor 22-F plasmid (Promega). The following day, cells were trypsinized, centrifuged (300g/5min), resuspended in DMEM supplemented with 1% dialyzed FBS (Gibco) and plated in 96 well, solid white plates (Corning, cat # 3917). After overnight culture to allow adherence, media was exchanged for assay buffer (HBSS supplemented with 0.1% BSA, 20mM HEPES (pH 7.4), and GloSensor reagent (Promega). cAMP-luminescence assays were performed following addition of a phosphodiesterase inhibitor (3-isobutyl-1-methylxanthine, IBMX; 200μM) using a GloMax-Multi Detection System plate reader (Promega) as described previously.

[3] = target: 5-HT7Egran2 (Echinococcus canadensis, UniProt A0A482LXK0); test: cell-based; format: cell-based, Echinococcus granulosus
Description: as §1

[4] = target: 5-HT7Mco1 (Mesocestoides corti, UniProt A0A482LRJ4); test: cell-based; format: cell-based
Description: as §1

[5] = system: Mesocestoides corti tetrathyridia; test: Motility index of tetrathyridia, WMicrotracker (light scattering)
Description: For the motility index measurement, the method of Camicia et al. was followed with minor modifications. In the case of E. granulosus, protoscoleces were mantained in RPMI medium with high glucose (Gibco, USA) with 50 μg/ml of gentamicin for no more than 48 hours in order to avoid the potential differentiation of the protoscolex towards premicrocyst. The day before the experiment the protoscoleces were transferred to U-shape 96-well microplates (Greiner Bio-One, Germany) with approximately 125 parasites per 100 μl per well. This number of parasites per well was empirically determined as the best number of worms to perform the experiments. Movement was measured as described for C. elegans using a worm tracker device (WMicrotracker Designplus SRL, Argentina) which determines the motility index by the light-microbeam (100 μm wide; k = 880 nm; intensity <1 mW) scattering produced by the movement of parasites. Quantification of the signal was performed by applying a mathematical algorithm previously described for sperm viability determination (Patent number: US4176953, year of submission: 1978, year of publication: 1979).
To study the effect of 5-HT on the motility of M. corti tetrathyridia, only one worm per well was used as this was the empirically determined optimal number. […] M. corti tetrathyridia were used fresh, immediately after the mice was opened. […]

[6] = system: Mesocestoides corti tetrathyridia; test: Motility of tetrathyridia by video imaging; details: period of 30 minutes
Description: In some experiments, alongside to the worm tracker motility analyses, the parasite motor activity was also measured with a digital video camera (Kodak easy share Z915 digital camera) coupled to an inverted microscope (Nikon, model TMS-F). Fresh parasites were processed in the same way as in previous sections in U-shape 96-well microplates, then incubated overnight at 37°C in a 5% CO2 atmosphere and finally video recorded with a digital camera after drug treatment. Images were obtained for a period of 15 seconds and the data were analyzed with ImageJ software (version 1.48, NIH, USA). […] To quantify this type of movements the method of Patocka et al. was followed with some modifications. The videos were transformed to stacks of TIFF images by using the Filmora video editor (Wondershare Filmora, version 8.2.3, downloaded from https://filmora.wondershare.es/) and then imported into ImageJ. First, the stacks were first converted to 8 bit type images. Next, the background was subtracted and then converted to a binary image by threshold adjust. […]
Statistical analyses were carried out using the GraphPad Prism Software package, version 6 for Windows (GraphPad Software, CA, USA). […] For image based assays, pixel changes in control and treatments were calculated and analyzed with one way ANOVA and Dunnett post-test were performed comparing all the concentrations with the control. […]

[7] = system: Mesocestoides corti tetrathyridia; set-up: method as in PMID 12003065; details: 30 minutes of incubation; cited from earlier work

Chain of 5-HT7Egran1 (A0A482LU10 entry or part of it): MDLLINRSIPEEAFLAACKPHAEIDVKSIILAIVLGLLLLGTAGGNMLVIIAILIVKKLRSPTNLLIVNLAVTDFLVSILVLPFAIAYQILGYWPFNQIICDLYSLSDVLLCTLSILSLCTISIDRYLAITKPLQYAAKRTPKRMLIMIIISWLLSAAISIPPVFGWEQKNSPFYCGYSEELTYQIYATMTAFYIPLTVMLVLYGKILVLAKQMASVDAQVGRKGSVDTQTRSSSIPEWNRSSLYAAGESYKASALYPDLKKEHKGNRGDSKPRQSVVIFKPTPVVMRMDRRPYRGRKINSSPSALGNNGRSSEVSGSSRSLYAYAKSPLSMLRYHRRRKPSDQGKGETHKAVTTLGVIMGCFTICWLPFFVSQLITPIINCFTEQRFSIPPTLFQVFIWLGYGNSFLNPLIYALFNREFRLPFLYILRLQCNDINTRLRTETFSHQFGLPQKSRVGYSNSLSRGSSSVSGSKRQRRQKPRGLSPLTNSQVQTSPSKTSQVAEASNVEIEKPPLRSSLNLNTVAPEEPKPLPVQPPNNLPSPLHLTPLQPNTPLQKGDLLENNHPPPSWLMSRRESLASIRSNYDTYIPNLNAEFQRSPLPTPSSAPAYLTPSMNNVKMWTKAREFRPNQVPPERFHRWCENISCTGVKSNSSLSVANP
Chain of 5-HT7Egran2 (A0A482LXK0 entry or part of it): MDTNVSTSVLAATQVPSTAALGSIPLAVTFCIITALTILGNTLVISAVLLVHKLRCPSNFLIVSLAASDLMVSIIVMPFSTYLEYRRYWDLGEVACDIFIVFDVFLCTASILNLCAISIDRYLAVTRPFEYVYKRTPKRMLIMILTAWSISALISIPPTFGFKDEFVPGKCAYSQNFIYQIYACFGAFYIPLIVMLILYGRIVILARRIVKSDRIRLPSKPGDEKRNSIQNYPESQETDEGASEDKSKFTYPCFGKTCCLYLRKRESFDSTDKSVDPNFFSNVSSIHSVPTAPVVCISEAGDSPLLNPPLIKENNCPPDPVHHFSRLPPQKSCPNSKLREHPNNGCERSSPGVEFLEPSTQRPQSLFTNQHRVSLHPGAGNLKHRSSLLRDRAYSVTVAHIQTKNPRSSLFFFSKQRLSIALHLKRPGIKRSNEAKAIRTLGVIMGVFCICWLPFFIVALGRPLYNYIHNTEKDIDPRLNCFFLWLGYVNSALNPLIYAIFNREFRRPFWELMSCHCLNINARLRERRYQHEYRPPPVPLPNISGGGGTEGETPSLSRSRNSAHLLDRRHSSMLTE
Chain of 5-HT7Mco1 (A0A482LRJ4 entry or part of it): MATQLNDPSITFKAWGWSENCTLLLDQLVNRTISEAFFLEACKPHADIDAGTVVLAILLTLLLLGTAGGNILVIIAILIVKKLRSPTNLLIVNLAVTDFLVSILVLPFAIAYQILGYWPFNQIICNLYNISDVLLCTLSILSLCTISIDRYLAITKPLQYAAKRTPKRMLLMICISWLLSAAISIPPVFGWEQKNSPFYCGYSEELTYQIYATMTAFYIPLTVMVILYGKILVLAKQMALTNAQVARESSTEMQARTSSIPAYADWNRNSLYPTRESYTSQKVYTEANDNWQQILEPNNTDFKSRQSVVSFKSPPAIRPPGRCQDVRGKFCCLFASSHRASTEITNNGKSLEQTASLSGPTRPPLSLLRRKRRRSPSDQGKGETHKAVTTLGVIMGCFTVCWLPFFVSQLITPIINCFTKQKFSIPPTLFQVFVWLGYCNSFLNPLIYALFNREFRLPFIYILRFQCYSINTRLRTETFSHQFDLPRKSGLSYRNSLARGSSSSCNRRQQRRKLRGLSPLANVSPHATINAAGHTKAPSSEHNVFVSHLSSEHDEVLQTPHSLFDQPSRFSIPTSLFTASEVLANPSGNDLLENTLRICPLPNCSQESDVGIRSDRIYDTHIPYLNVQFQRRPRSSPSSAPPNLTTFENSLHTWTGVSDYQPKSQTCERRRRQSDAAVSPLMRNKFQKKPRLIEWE

Compound | EC50 [2] [nM] | EC50 [4] [nM] | pharmacological behaviour (agonist/antagonist, efficacy) in cAMP assay [2] | pharmacological behaviour (agonist/antagonist, efficacy) in cAMP assay ([3]; 5-HT7Egran2) | pharmacological behaviour (agonist/antagonist, efficacy) in cAMP assay ([4]; 5-HT7Mco1) | EC50 [3] [nM] | other results
CN(C)c1cccc2c(S(=O)(=O)NCCCCC34CCCN3C(=O)N(CCCCN3CCN(c5cccc6ccccc56)CC3)C4=O)cccc12 (centres unmarked) [UCM120] | – | – | – | – | – | – | Ki [1]: 2 nM
NCCc1c[nH]c2ccc(O)cc12 [5-HT, 5-hydroxytryptamine] | 171 ± 57 | 0.255 ± 0.063 | – | – | – | – | fold-change in luminescence signal on addition of 5-HT ([2]; cells expressing 5-HT7Egran1): ~ 20 fold; EC50 ([3]; HEK-293 cells expressing 5-HT7Egran2, IBMX 200μM, read-out: EC50 for evoked cAMP production): 0.543 ± 0.107 nM; fold-change in luminescence signal on addition of 5-HT ([3]; cells expressing 5-HT7Egran2, basal coupling): ~ 3.3 fold; fold-change in luminescence signal on addition of 5-HT ([4]; cells expressing 5-HT7Mco1, basal coupling): ~ 2.5 fold; concentration from which stimulation of motility is observed ([5]; 30 minutes of incubation, light scattering method): ≥ 500 µM; concentration from which a significant rise of motility is seen ([5]; period of two hours, WMicrotracker, up to 2000 μM): ≥ 100 µM; concentration necessary for significant changes in motility [6]: 1000 µM; concentration previously reported to stimulate tetrathyridia motility [7]: 100 nM
CCN(CC)C(=O)[C@@H]1C=C2c3cccc4[nH]cc(c34)C[C@H]2N(C)C1 [LSD, Lysergic acid diethylamide] | 35 ± 6 | 4.4 ± 1 | potently activated | antagonist | potently activated | – | IC50 [3]: 2.9 ± 0.2 nM
NCCc1c[nH]c2ccccc12 [tryptamine] | – | ~1000 | – | – | – | ~800 | cAMP response to neurotransmitter (activation) ([3]; 10μM, cells expressing 5-HT7Egran2): activator; sensitivity to tryptamine relative to 5-HT (fold less sensitive) ([3]; 5-HT7Egran2): at least 1000 fold; cAMP response to neurotransmitter (activation) ([4]; 10μM, cells expressing 5-HT7Mco1): activator; sensitivity to tryptamine relative to 5-HT (fold less sensitive) ([4]; 5-HT7Mco1): at least 1000 fold
CN1C[C@H](C(=O)N[C@]2(C)O[C@@]3(O)[C@@H]4CCCN4C(=O)[C@H](Cc4ccccc4)N3C2=O)C=C2c3cccc4[nH]cc(c34)C[C@H]21 [ergotamine] | 290 ± 49 | 354 ± 62 | low efficacy partial agonist | higher efficacy partial agonist | higher efficacy partial agonist | 234 ± 37 | –
